# In US20260027214A1, “PHARMACEUTICAL COMPOSITION FOR TREATING OR PREVENTING INFLAMMATION CAUSED BY ACANTHAMOEBA” (priority 2022, published 2026):
# Columns and labels:
# Acanthamoeba polyphaga [1] = experiment: Cell death test: trypan blue staining of adhered Acanthamoeba; format: cell-based; conditions: for Acanthamoeba inhibition effects (antiprotozoal effects): in words, compared with complex at 100 μg/mL and 1000 μg/mL; for Acanthamoeba mortality rate: 60 min immersion, 1×10^5 Acanthamoeba/mL
# Procedure: (§1) An Acanthamoeba solution containing 1×10^5 Acanthamoeba per mL of solution was prepared by dispersing Acanthamoeba (Acanthamoeba polyphaga, obtained from American Type Culture Collection (ATCC), 30872™) in phosphate-buffered saline as solvent.
# (§2) The polypropylene test pieces used in the adhesion test described below were polypropylene from Johoku Co., Ltd., product number: PP_A3, cut to dimensions of 15 mm length×15 mm width×0.25 mm thickness from original dimensions of 320 mm length×440 mm width×0.25 mm thickness for each experiment.
# (§3) To verify the anti-adhesive properties and antiprotozoal activity of the lysozyme-chitosan complex (LYZOX (registered trademark)), adhesion tests and cell death tests were conducted.
# (§4) Specifically, the above-mentioned Acanthamoeba solution was added to the above-mentioned lysozyme-chitosan complex (LYZOX (registered trademark)) solution to prepare mixed solutions containing 0.1 μg, 1 μg, 10 μg, 100 μg, and 1000 μg of lysozyme-chitosan complex per 1 mL of mixed solution. Separately, a control solution with 0 μg/mL concentration containing no lysozyme-chitosan complex was prepared. The same sterilized water used in preparing the lysozyme-chitosan complex was used as dilution liquid for concentration adjustment. All six solutions contained 1×10^5 Acanthamoeba per 1 mL of solution.
# (§5) The above-mentioned polypropylene test pieces were immersed in the prepared mixed solutions and left standing; after 60 minutes of immersion, the test pieces were removed from the mixed solutions, washed with phosphate-buffered saline (PBS, obtained from FUJIFILM Wako Pure Chemical Corporation, product number: 166-23555), and dried. The surface of the obtained test pieces was observed under a biological microscope (obtained from Nikon, product number: ECLIPSE E-200), and Acanthamoeba adhered within a 5×5 mm observation area on the test piece surface were counted. Subsequently, trypan blue was applied to the observation area, staining dead Acanthamoeba, and the number of dead Acanthamoeba was counted.
# (§6) Acanthamoeba were counted and the total number of adhered Acanthamoeba, number of dead Acanthamoeba, and Acanthamoeba mortality rate were measured in the same manner as Experimental Example 1, except that the mixture solution of lysozyme and chitosan (Table 2), lysozyme alone (Table 3), and chitosan alone (Table 4) described above were used instead of the lysozyme-chitosan complex (LYZOX (registered trademark)) solution of Experimental Example 1.
# Acanthamoeba polyphaga [2] = experiment: Adhesion test: Acanthamoeba adhered to polypropylene test pieces after 60 min immersion; format: cell-based
# Procedure: as §1, §2, §3, §4, §5, §6
Substance,Acanthamoeba inhibition effects (antiprotozoal effects) (Acanthamoeba polyphaga [1]),"Total number of adhered Acanthamoeba (Acanthamoeba polyphaga [2]; 0.05 μg/mL, 1×10^5 Acanthamoeba/mL) [count/mm^2]","Total number of adhered Acanthamoeba (Acanthamoeba polyphaga [2]; 0.5 μg/mL, 1×10^5 Acanthamoeba/mL) [count/mm^2]","Total number of adhered Acanthamoeba (Acanthamoeba polyphaga [2]; 5 μg/mL, 1×10^5 Acanthamoeba/mL) [count/mm^2]","Total number of adhered Acanthamoeba (Acanthamoeba polyphaga [2]; 50 μg/mL, 1×10^5 Acanthamoeba/mL) [count/mm^2]","Total number of adhered Acanthamoeba (Acanthamoeba polyphaga [2]; 500 μg/mL, 1×10^5 Acanthamoeba/mL) [count/mm^2]",Acanthamoeba mortality rate (Acanthamoeba polyphaga [1]; 0.05 μg/mL) [%],Acanthamoeba mortality rate (Acanthamoeba polyphaga [1]; 0.5 μg/mL) [%],Acanthamoeba mortality rate (Acanthamoeba polyphaga [1]; 5 μg/mL) [%],Acanthamoeba mortality rate (Acanthamoeba polyphaga [1]; 50 μg/mL) [%],Acanthamoeba mortality rate (Acanthamoeba polyphaga [1]; 500 μg/mL) [%],"Total number of adhered Acanthamoeba (Acanthamoeba polyphaga [2]; 0.05 μg/mL, 1×10^5 Acanthamoeba/mL (Table 4)) [count/mm2]","Total number of adhered Acanthamoeba (Acanthamoeba polyphaga [2]; 0.5 μg/mL, 1×10^5 Acanthamoeba/mL (Table 4)) [count/mm2]","Total number of adhered Acanthamoeba (Acanthamoeba polyphaga [2]; 5 μg/mL, 1×10^5 Acanthamoeba/mL (Table 4)) [count/mm2]","Total number of adhered Acanthamoeba (Acanthamoeba polyphaga [2]; 50 μg/mL, 1×10^5 Acanthamoeba/mL (Table 4)) [count/mm2]","Total number of adhered Acanthamoeba (Acanthamoeba polyphaga [2]; 500 μg/mL, 1×10^5 Acanthamoeba/mL (Table 4)) [count/mm2]"
Lysozyme: egg white lysozyme with molecular weight of approximately 14300 (Biocon (Japan) Ltd.),incomplete,119,94.2,87.2,67.8,42.1,–,–,–,–,–,–,–,–,–,–
poly-β1→4-glucosamine [Chitosan],incomplete,–,–,–,–,–,3.5,3.8,3.9,7.9,37.4,108,89.2,82.1,65.3,49.7
